ChEMBL document CHEMBL1135052, “7-Methoxyfuro[2,3-c]pyridine-4-carboxamides as PDE4 inhibitors: a potential treatment for asthma” (Bioorg Med Chem Lett, 2002)
Activity calls are given as the source filed them.

Legend:
Phosphodiesterase 4 [1] = molecular target: T1, Phosphodiesterase 4 (Homo sapiens, UniProt P27815+Q08499+Q07343+Q08493); assay: (§1) Inhibition of human phosphodiesterase 4 from U937 cells; assay type: cell-based; conditions: u-937
Phosphodiesterase 4 [2] = molecular target: T1, Phosphodiesterase 4; assay: as §1; assay type: cell-based; conditions: U-937, concentration not given here
[3] = molecular target: Phosphodiesterase 4 (Rattus norvegicus) (UniProt P14270+P14646+P14644+P54748); assay: Inhibition of rolipram binding to rat brain at 1 uM; assay type: tissue-based
[4] = molecular target: T2, Phosphodiesterase 3 (Homo sapiens) (UniProt Q14432+Q13370); assay: Inhibition of human platelet Phosphodiesterase 3 at 20 uM
[5] = Bioavailability in guinea pig was tested; assay type: ADME, organism-based, Cavia porcellus; conditions: in vivo, read-out: Bioavailabiility
[6] = AUC tested in guinea pig when 3 mg/kg dose was given perorally; assay type: ADME, organism-based, Cavia porcellus, Plasma; parameters: dose 3 mg/kg, route oral; conditions: in vivo, po
[7] = Maximum plsma drug concentration in guinea pig when 3 mg/kg dose was given perorally; assay type: ADME, organism-based, Cavia porcellus; parameters: dose 3 mg/kg, route oral; conditions: plasma, po
[8] = molecular target: T2, Phosphodiesterase 3 (Homo sapiens); assay: Inhibition of human platelet phosphodiesterase 3 at 1 uM
[9] = molecular target: T2, Phosphodiesterase 3 (Homo sapiens); assay: Inhibition of human platelet Phosphodiesterase 3 at 1 uM (inactive)
[10] = molecular target: T2, Phosphodiesterase 3 (Homo sapiens); assay: Inhibition of human platelet Phosphodiesterase 3 at 20 uM (inactive)

IC50 (Phosphodiesterase 4 [1]) [µM] | SMILES | also measured
0.066 | CCc1cc2c(C(=O)Nc3c(F)cccc3F)cnc(OC)c2o1 | 
0.14 | CCc1cc2c(C(=O)Nc3ncncc3C#N)cnc(OC)c2o1 | inhibition [9]: inactive
0.12 | CCc1cc2c(C(=O)Nc3cc[n+]([O-])cc3C)cnc(OC)c2o1 | 
0.023 | COc1ncc(C(=O)Nc2c(Cl)c[n+]([O-])cc2Cl)c2cc(C3CCOC3)oc12 (centres undefined) | 

The next lines start with the molecule.

SMILES | IC50 (Phosphodiesterase 4 [1]) [µM] | also measured
CCc1cc2c(C(=O)Nc3c(Cl)c[n+]([O-])cc3Cl)cnc(O)c2o1 |  | inhibition (Phosphodiesterase 4 [2]): 22%; inhibition [3]: 61%
COc1ncc(C(=O)Nc2c(Cl)c[n+]([O-])cc2Cl)c2cc(-c3cccnc3)oc12 | 0.062 | 
CCc1cc2c(C(=O)Nc3cc[n+]([O-])cc3OC)cnc(OC)c2o1 |  | inhibition (Phosphodiesterase 4 [2]): 21%
CCc1cc2c(C(=O)Nc3c(Cl)c[n+]([O-])cc3Cl)cnc(OC)c2o1 | 0.014 | inhibition [4]: 32%; bioavailability [5]: 54%; AUC [6]: 4942 ng/mL; Cmax [7]: 1410 ng/mL
CCc1cc2c(C(=O)Nc3c(Cl)c[n+]([O-])cc3Cl)cnc(OC(F)F)c2o1 | 0.0037 | 
CCc1cc2c(C(=O)Nc3c(C)cc(C#N)cc3Cl)cnc(OC)c2o1 | 0.23 | 
CCc1cc2c(C(=O)Nc3cc[n+]([O-])cc3Cl)cnc(OC)c2o1 | 0.12 | inhibition [8]: 39%
COCc1cc2c(C(=O)Nc3c(Cl)c[n+]([O-])cc3Cl)cnc(OC)c2o1 | 0.047 | inhibition [10]: inactive
COc1ncc(C(=O)Nc2c(Cl)c[n+]([O-])cc2Cl)c2cc(C3(OC)CCN(C(=O)OC(C)(C)C)CC3)oc12 | 0.048 | inhibition [10]: inactive
COc1ncc(C(=O)Nc2c(Cl)c[n+]([O-])cc2Cl)c2cc(C3CCOCC3)oc12 | 0.047 | inhibition [4]: 3%
